How the values were obtained:
[1] = molecular target: Kappa-type opioid receptor (Cavia porcellus, UniProt P41144); assay: Displacement of [3H]-U69593 from KOR in guinea pig brain membranes measured by competitive radioligand receptor binding assay; format: cell membranes, Membrane
[2] = molecular target: T1, Sigma intracellular receptor 2 (Rattus norvegicus, UniProt Q5U3Y7); assay: Displacement of [3H]-di-o-tolylguanidine from sigma2 receptor in rat liver membrane measured by competitive radioligand receptor binding assay; format: cell membranes
T1 sequence (Q5U3Y7 whole entry): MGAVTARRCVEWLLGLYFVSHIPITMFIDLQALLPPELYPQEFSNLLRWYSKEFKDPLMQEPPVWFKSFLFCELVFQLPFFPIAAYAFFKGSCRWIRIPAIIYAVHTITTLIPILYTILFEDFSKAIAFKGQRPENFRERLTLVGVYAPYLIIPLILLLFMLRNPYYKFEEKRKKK

[3] = molecular target: Sigma non-opioid intracellular receptor 1 (Cavia porcellus, UniProt Q60492); assay: Displacement of [3H]-(+)-pentazocine from sigma1 receptor in guinea pig brain membrane measured by competitive radioligand receptor binding assay; format: cell membranes
Mu-type opioid receptor = Mu-type opioid receptor (Cavia porcellus, UniProt P97266); assay: Displacement of [3H]-DAMGO from MOR in guinea pig brain membranes measured by competitive radioligand receptor binding assay; format: cell membranes, Membrane
[4] = molecular target: Delta-type opioid receptor (Rattus norvegicus, UniProt P33533); assay: Displacement of [3H]-DPDPE from DOR in rat brain membranes measured by competitive radioligand receptor binding assay; format: cell membranes, Membrane

Compound | Ki [1] [nM] | Ki [2] [nM] | Ki [3] [nM] | Ki (Mu-type opioid receptor) [nM] | Ki [4] [nM]
O=C(Cc1ccc(Cl)c(Cl)c1)N1CCC2CC1[C@@H](N1CCCC1)C2 (stereo partly drawn) | 862 | – | – | – | –
O=C(Cc1ccc(Cl)c(Cl)c1)N1CC[C@@H]2CC[C@H](N3CCCC3)[C@H]1C2 | – | 487 | – | – | –
O=C(Cc1ccc(Cl)c(Cl)c1)N1CCN2CC[C@@H](N3CCCC3)C1C2 (stereo partly drawn) | 73 | – | – | – | –
O=C(Cc1ccc(Cl)c(Cl)c1)N1CC[C@H]2CC[C@@H](N3CCCC3)[C@@H]1C2 | – | 154 | – | – | –
O=C(Cc1ccc(Cl)c(Cl)c1)N1CCCCC1CN1CCCC1 (stereo not drawn) | 0.24 | – | – | – | –
CN(C)[C@H]1C[C@H]2CCN(C(=O)Cc3ccc(Cl)c(Cl)c3)[C@@H]1C2 | 531 | 213 | 17 | – | –
O=C(Cc1ccc(Cl)c(Cl)c1)N1CCN2CC[C@H](N3CCCC3)C1C2 (stereo partly drawn) | > 1000 | – | – | – | –
CN(C)[C@@H]1CCC2CCN(C(=O)Cc3ccc(Cl)c(Cl)c3)C1C2 (mixture of isomers) | – | 608 | – | – | –
O=C(Cc1ccc(Cl)c(Cl)c1)N1CCC2CC1[C@H](N1CCCC1)C2 (stereo partly drawn) | 7 | – | – | – | –
CN(C)[C@@H]1C[C@@H]2CCN(C(=O)Cc3ccc(Cl)c(Cl)c3)[C@H]1C2 | 13 | 811 | 292 | > 1000 | –
O=C(Cc1ccc(Cl)c(Cl)c1)N1CC[C@H]2C[C@@H](N3CCCC3)[C@@H]1C2 | 7 | 534 | 56 | – | 542
O=C(Cc1ccc(Cl)c(Cl)c1)N1CC[C@H]2C[C@@H]1[C@@H](N1CCCC1)C2 | 1750 | 171 | 10 | – | –
COC(=O)N1CCN(C(=O)Cc2ccc(Cl)c(Cl)c2)[C@H](CN2CCCC2)C1 | 0.46 | – | – | – | –

Reference: ChEMBL document CHEMBL5154699 (Eur J Med Chem, 2022)
